According to patent publication US11655235B2, “Pyrrolidine and piperidine compounds” (YUHAN CORPORATION, priority 2019, dated 2023):

Key:
Recombinant human FAP = molecular target: T1, Recombinant human FAP (Homo sapiens, UniProt Q12884); assay: FAP FRET assay, FGF21-sequence FRET peptide substrate; assay type: biochemical; settings: FRET peptide with human FGF21 sequence, 6 μM, 37° C.
T1 construct: purchased R&D systems
T1 sequence (Q12884 1-760): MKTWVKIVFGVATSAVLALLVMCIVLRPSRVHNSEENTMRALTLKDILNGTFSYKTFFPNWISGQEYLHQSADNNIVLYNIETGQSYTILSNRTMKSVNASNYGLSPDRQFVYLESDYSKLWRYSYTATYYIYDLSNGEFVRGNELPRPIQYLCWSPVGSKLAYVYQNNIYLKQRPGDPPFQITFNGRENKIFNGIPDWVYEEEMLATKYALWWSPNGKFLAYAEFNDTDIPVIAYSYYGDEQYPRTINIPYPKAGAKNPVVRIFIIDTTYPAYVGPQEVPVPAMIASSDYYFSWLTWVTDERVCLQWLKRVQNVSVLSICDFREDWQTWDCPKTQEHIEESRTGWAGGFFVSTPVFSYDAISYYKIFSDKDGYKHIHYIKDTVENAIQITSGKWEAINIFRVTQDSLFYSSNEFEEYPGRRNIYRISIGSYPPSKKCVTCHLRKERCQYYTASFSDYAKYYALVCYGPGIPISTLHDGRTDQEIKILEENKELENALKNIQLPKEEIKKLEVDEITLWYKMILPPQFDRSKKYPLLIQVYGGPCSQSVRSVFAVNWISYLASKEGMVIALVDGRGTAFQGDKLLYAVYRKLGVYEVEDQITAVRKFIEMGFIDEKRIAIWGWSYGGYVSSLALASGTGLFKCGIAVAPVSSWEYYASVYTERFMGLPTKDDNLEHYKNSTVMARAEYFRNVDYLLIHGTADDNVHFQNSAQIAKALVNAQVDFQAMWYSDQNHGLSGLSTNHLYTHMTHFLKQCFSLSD
Method: The compounds according to the present technology were evaluated in terms of the inhibitory effect on the activity of dipeptidyl peptidases including FAP by using a substrate producing fluorescent substances upon enzymatic decomposition. The test was conducted at 25° C. to get a final reaction volume of 100 μL in a 96 black well plate. […] Briefly, the test compounds were dissolved in dimethyl sulfoxide (DMSO) at a concentration of 20 mM and then subjected to serial dilution, thereby creating an 8 point curve. As for the control group, a 6 point curve created by serial dilution of Talabostat in the same buffer solution was used. Fluorescence intensity was measured using a microplate reader (Flexstation3, Molecular Devices) under the wavelength condition exciting at 380 nm and reading the emission at 460 nm. The inhibitory effect of the test compounds was measured as a decrease (%) in the signal rate as compared to the control group without any inhibitor. Data was fixed to a logistic model with four variables and IC50 value was calculated using GraphPad Prism program. For the FAP FRET assay, recombinant human FAP (R&D systems) was diluted with 50 mM HEPES (pH 7.2) buffer comprising 150 mM of sodium chloride, 0.1 mg/ml of bovine serum albumin (BSA) and 1 mM EDTA to be 10 ng per final reaction. The test compounds were subjected to serial dilution in a buffer under the condition containing up to 0.1% of DMSO. FRET peptides containing human FGF21 sequence ([…]) conjugated with HyLite Fluor 488 and dark quencher QXL 520 (Anaspec) was used as a substrate. By dissolving in DMSO and then diluting in the same buffer, the substrate was added to be 6 μM per final reaction. All reactions of FRET assay was conducted at 37° C.

DPP4 = DPP4 (Homo sapiens, UniProt P27487); assay: DPP4 inhibition, fluorogenic substrate H-Gly-Pro-AMC; assay type: biochemical; design: purchased R&D Systems; settings: recombinant human DPP4
DPP4, sequence (P27487 whole entry): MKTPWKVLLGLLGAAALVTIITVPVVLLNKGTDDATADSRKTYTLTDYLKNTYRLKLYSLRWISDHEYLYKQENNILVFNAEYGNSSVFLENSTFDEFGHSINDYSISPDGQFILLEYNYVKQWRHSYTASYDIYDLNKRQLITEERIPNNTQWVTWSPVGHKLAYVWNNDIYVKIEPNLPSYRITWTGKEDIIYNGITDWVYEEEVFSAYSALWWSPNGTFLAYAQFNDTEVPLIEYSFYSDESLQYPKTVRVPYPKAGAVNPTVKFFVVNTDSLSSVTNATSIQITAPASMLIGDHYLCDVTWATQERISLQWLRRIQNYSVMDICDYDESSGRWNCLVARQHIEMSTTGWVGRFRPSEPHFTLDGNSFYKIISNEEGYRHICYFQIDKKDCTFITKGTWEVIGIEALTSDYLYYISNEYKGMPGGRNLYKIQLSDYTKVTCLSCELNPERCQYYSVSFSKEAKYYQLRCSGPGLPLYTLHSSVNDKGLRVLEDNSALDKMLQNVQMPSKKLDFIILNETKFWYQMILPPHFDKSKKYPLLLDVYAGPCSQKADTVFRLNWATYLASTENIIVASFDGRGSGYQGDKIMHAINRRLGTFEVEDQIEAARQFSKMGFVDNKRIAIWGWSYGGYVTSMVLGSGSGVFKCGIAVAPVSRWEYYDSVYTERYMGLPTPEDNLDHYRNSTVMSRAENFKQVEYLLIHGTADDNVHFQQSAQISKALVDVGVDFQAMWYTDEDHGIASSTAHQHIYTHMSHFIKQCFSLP

| Compound | IC50 (Recombinant human FAP) | IC50 (DPP4) |
| --- | --- | --- |
| CCN(c1cccc2ncccc12)C1CCN(CC(=O)N2C[C@@H](F)C[C@H]2C#N)CC1 [Example 305, (2S,4S)-1-[2-[4-[ethyl(5-quinolyl)amino]-1-piperidyl]acetyl]-4-fluoro-pyrrolidine-2-carbonitrile] | 50.7 nM | 2080 nM |
| COc1ccc2ncc(N(C)C3CCN(CC(=O)N4CCC[C@H]4C#N)CC3)cc2c1 [Example 323, (S)-1-(2-(4-((6-methoxyquinolin-3-yl)(methyl)amino)piperidin-1-yl)acetyl)pyrrolidine-2-carbonitrile] | 5.8 nM | ≥ 100000 nM |
| COc1cccc2cc(N(C)C3CCN(CC(=O)N4CCC[C@H]4C#N)CC3)cnc12 [Example 325, (2S)-1-[2-[4-[methyl-(8-methoxy-3-quinolyl)amino]-1-piperidyl]acetyl]pyrrolidine-2-carbonitrile] | 8.9 nM | ≥ 100000 nM |
| Cc1ccc2ncc(N(C)C3CCN(CC(=O)N4C[C@@H](F)C[C@H]4C#N)CC3)cc2c1 [Example 326, (2S,4S)-4-fluoro-1-[2-[4-[methyl-(6-methyl-3-quinolyl)amino]-1-piperidyl]acetyl]pyrrolidine-2-carbonitrile] | 8.8 nM | 50600 nM |
| COc1cccc2cc(N(C)C3CCN(CC(=O)N4C[C@@H](F)C[C@H]4C#N)CC3)cnc12 [Example 329, (2S,4S)-4-fluoro-1-[2-[4-[(8-methoxy-3-quinolyl)-methyl-amino]-1-piperidyl]acetyl]pyrrolidine-2-carbonitrile] | 7.5 nM | 26300 nM |
| Cc1cccc2c(NC3CCN(CC(=O)N4C[C@@H](F)C[C@H]4C#N)CC3)ccnc12 [Example 343, (2S,4S)-4-fluoro-1-[2-[4-[(8-methyl-4-quinolyl)amino]-1-piperidyl]acetyl]pyrrolidine-2-carbonitrile] | 30.7 nM | 17400 nM |
| N#C[C@@H]1C[C@H](F)CN1C(=O)CN1CCC(Nc2cnc3ccc(F)cc3c2)CC1 [Example 364, (2S,4S)-4-fluoro-1-[2-[4-[(6-fluoro-3-quinolyl)amino]-1-piperidyl]acetyl]pyrrolidine-2-carbonitrile] | 17.2 nM | 9130 nM |
| COc1ccc2cc(NC3CCN(CC(=O)N4C[C@@H](F)C[C@H]4C#N)CC3)cnc2c1 [Example 366, (2S,4S)-4-fluoro-1-[2-[4-[(7-methoxy-3-quinolyl)amino]-1-piperidyl]acetyl]pyrrolidine-2-carbonitrile] | 36 nM | ≥ 10000 nM |
| COc1cccc2cc(NC3CCN(CC(=O)N4C[C@@H](F)C[C@H]4C#N)CC3)cnc12 [Example 367, (2S,4S)-4-fluoro-1-[2-[4-[(8-methoxy-3-quinolyl)amino]-1-piperidyl]acetyl]pyrrolidine-2-carbonitrile] | 28.1 nM | ≥ 10000 nM |
| N#C[C@@H]1C[C@H](F)CN1C(=O)CN1CCC(Nc2cnc3ncccc3c2)CC1 [Example 368, (2S,4S)-4-fluoro-1-[2-[4-(1,8-naphthyridin-3-ylamino)-1-piperidyl]acetyl]pyrrolidine-2-carbonitrile] | 36.7 nM | ≥ 10000 nM |
| N#C[C@@H]1C[C@H](F)CN1C(=O)CN1CCC(Nc2cnc3nc(Cl)ccc3c2)CC1 [Example 369, (2S,4S)-1-[2-[4-[(7-chloro-1,8-naphthyridin-3-yl)amino]-1-piperidyl]acetyl]-4-fluoro-pyrrolidine-2-carbonitrile] | 62.1 nM | ≥ 10000 nM |
| CCOc1ccc(NC2CCN(CC(=O)N3CCC[C@H]3C#N)CC2)c2cccnc12 [Example 370, (2S)-1-[2-[4-[(8-ethoxy-5-quinolyl)amino]-1-piperidyl]acetyl]pyrrolidine-2-carbonitrile] | 11 nM | 36800 nM |
| CC(=O)N1CCc2c(NC3CCN(CC(=O)N4C[C@@H](F)C[C@H]4C#N)CC3)cccc21 [Example 373, (2S,4S)-1-[2-[4-[(1-acetylindolin-4-yl)amino]-1-piperidyl]acetyl]-4-fluoro-pyrrolidine-2-carbonitrile] | 92.4 nM | 2760 nM |
| Cc1cc(NC2CCN(CC(=O)N3C[C@@H](F)C[C@H]3C#N)CC2)cc2cccnc12 [Example 374, (2S,4S)-4-fluoro-1-[2-[4-[(8-methyl-6-quinolyl)amino]-1-piperidyl]acetyl]pyrrolidine-2-carbonitrile] | 31.6 nM | 5670 nM |
| N#C[C@@H]1C[C@H](F)CN1C(=O)CN1CCC(Nc2cc(F)c3ncccc3c2)CC1 [Example 375, (2S,4S)-4-fluoro-1-[2-[4-[(8-fluoro-6-quinolyl)amino]-1-piperidyl]acetyl]pyrrolidine-2-carbonitrile] | 22.9 nM | 6960 nM |
| N#C[C@@H]1CCCN1C(=O)CN1CCC(Nc2cc(=O)oc3ccccc23)CC1 [Example 378, (2S)-1-[2-[4-[(2-oxochromen-4-yl)amino]-1-piperidyl]acetyl]pyrrolidine-2-carbonitrile] | 99.2 nM | 24500 nM |

More lines, in order of falling IC50 (Recombinant human FAP), values ahead:

| IC50 (Recombinant human FAP) | IC50 (DPP4) | Compound |
| --- | --- | --- |
| 36.3 nM | 14200 nM | CN(C(=O)c1ccc(N[C@H]2CCN(CC(=O)N3CCC[C@H]3C#N)C2)c2cccnc12)c1ccccc1 [Example 289, N-methyl-N-phenyl-5-[[(3S)-1-[2-oxo-2-[(2S)-2-cyanopyrrolidin-1-yl]ethyl]pyrrolidin-3-yl]amino]quinoline-8-carboxamide] |
| 30.6 nM | ≥ 10000 nM | Cc1ccc2ncc(NC3CCN(CC(=O)N4C[C@@H](F)C[C@H]4C#N)CC3)cc2c1 [Example 363, (2S,4S)-4-fluoro-1-[2-[4-[(6-methyl-3-quinolyl)amino]-1-piperidyl]acetyl]pyrrolidine-2-carbonitrile] |
| 25 nM | ≥ 100000 nM | COc1ccc2cc(N(C)C3CCN(CC(=O)N4CCC[C@H]4C#N)CC3)cnc2c1 [Example 324, (2S)-1-[2-[4-[(7-methoxy-3-quinolyl)-methyl-amino]-1-piperidyl]acetyl]pyrrolidine-2-carbonitrile] |
| 22.3 nM | ≥ 10000 nM | COc1ccc2ncc(NC3CCN(CC(=O)N4C[C@@H](F)C[C@H]4C#N)CC3)cc2c1 [Example 365, (2S,4S)-4-fluoro-1-[2-[4-[(6-methoxy-3-quinolyl)amino]-1-piperidyl]acetyl]pyrrolidine-2-carbonitrile] |
| 19.3 nM | 6470 nM | N#C[C@@H]1C[C@H](F)CN1C(=O)CN1CCC(Nc2ccnc3c(F)cccc23)CC1 [Example 345, (2S,4S)-4-fluoro-1-[2-[4-[(8-fluoro-4-quinolyl)amino]-1-piperidyl]acetyl]pyrrolidine-2-carbonitrile] |
| 10.3 nM | ≥ 100000 nM | Cc1ccc2ncc(N(C)C3CCN(CC(=O)N4CCC[C@H]4C#N)CC3)cc2c1 [Example 322, (2S)-1-[2-[4-[methyl-(6-methyl-3-quinolyl)amino]-1-piperidyl]acetyl]pyrrolidine-2-carbonitrile] |
| 6 nM | 21400 nM | COc1ccc2cc(N(C)C3CCN(CC(=O)N4C[C@@H](F)C[C@H]4C#N)CC3)cnc2c1 [Example 328, (2S,4S)-4-fluoro-1-(2-(4-((7-methoxyquinolin-3-yl)(methyl)amino)piperidin-1-yl)acetyl)pyrrolidine-2-carbonitrile] |
| 3.1 nM | 31500 nM | COc1ccc2ncc(N(C)C3CCN(CC(=O)N4C[C@@H](F)C[C@H]4C#N)CC3)cc2c1 [Example 327, (2S,4S)-4-fluoro-1-(2-(4-((6-methoxyquinolin-3-yl)(methyl)amino)piperidin-1-yl)acetyl)pyrrolidine-2-carbonitrile] |
